Experimental data as given in US20150307938A1, “METHOD TO IDENTIFY A NOVEL CLASS OF IMMUNOLOGIC ADJUVANTS” (Lancell, L.L.C., priority 2011, published 2015).
Counter-ions that a name gives are not always drawn.

Columns and labels:
[1] = system: Murine Skin Dendritic Cells; assay: Activation of murine skin dendritic cells by DBP vs. DBlT (DC per lymph node, CD86); type: in vivo; conditions: topical treatment
Fluzone = system: Fluzone; design: species or system C57BL/6 mice; conditions: mouse, in vivo
skin = assay: Affymetrix microarray of skin, DBP-4 hr and analogs vs. untreated; gene selection by log-2 fold change, Wilcoxon, Kendall tau (Tables 8, 9); type: in vivo, mouse

With `CCCCOC(=O)[C@H](O)[C@@H](O)C(=O)OCCCC` [DBlT, dibutyl L tartrate] the “MFI CD86” value [1] was 634 (126) and the “HAI titer / adjuvant effect with the same dose of Fluzone” value (Fluzone) was “almost but not quite as good as DBT had”.
With `CCOC(=O)c1ccccc1C(=O)OCC` [DEP, diethylphthalate] the “Log2 Expression Level” value (skin; gene #1 of Table 8) was 5.52, the “Log2 Expression Level” value (skin; gene #2 of Table 8) was 7.18 and the “Log2 Expression Level” value (skin; gene #3 of Table 8) was 8.98. The “Log2 Expression Level” value (skin; gene #4 of Table 8) was 8.98, the “Log2 Expression Level” value (skin; gene #5 of Table 8) was 6.10 and the “Log2 Expression Level” value (skin; gene #6 of Table 8) was 7.14. For the same molecule, the “Log2 Expression Level” value (skin; gene #7 of Table 8) was 6.55, the “Log2 Expression Level” value (skin; gene #8 of Table 8) was 7.14 and the “Log2 Expression Level” value (skin; gene #9 of Table 8) was 7.14. The “Log2 Expression Level” value (skin; gene #10 of Table 8) was 7.14, the “Log2 Expression Level” value (skin; gene #11 of Table 8) was 6.55 and the “Log2 Expression Level” value (skin; gene #12 of Table 8) was 6.55. The “Log2 Expression Level” value (skin; gene #13 of Table 8) was 6.55, the “Log2 Expression Level” value (skin; gene #14 of Table 8) was 4.71 and the “Log2 Expression Level” value (skin; gene #15 of Table 8) was 4.71. The “Log2 Expression Level” value (skin; gene #16 of Table 8) was 7.54, the “Log2 Expression Level” value (skin; gene #17 of Table 8) was 9.32 and the “Log2 Expression Level” value (skin; gene #18 of Table 8) was 9.32. The “Log2 Expression Level” value (skin; gene #19 of Table 8) was 8.41, the “Log2 Expression Level” value (skin; gene #20 of Table 8) was 8.85 and the “Log2 Expression Level” value (skin; gene #21 of Table 8) was 8.77. The “Log2 Expression Level” value (skin; gene #22 of Table 8) was 5.30, the “Log2 Expression Level” value (skin; gene #23 of Table 8) was 6.03 and the “Log2 Expression Level” value (skin; gene #24 of Table 8) was 7.92. For the same molecule, the “Log2 Expression Level” value (skin; gene #25 of Table 8) was 7.92, the “Log2 Expression Level” value (skin; gene #26 of Table 8) was 7.51 and the “Log2 Expression Level” value (skin; gene #27 of Table 8) was 7.51. For the same molecule, the “Log2 Expression Level” value (skin; gene #28 of Table 8) was 7.51, the “Log2 Expression Level” value (skin; gene #29 of Table 8) was 5.79 and the “Log2 Expression Level” value (skin; gene #30 of Table 8) was 8.76. The “Log2 Expression Level” value (skin; gene #31 of Table 8) was 8.76, the “Log2 Expression Level” value (skin; gene #32 of Table 8) was 8.76 and the “Log2 Expression Level” value (skin; gene #33 of Table 8) was 5.34. For the same molecule, the “Log2 Expression Level” value (skin; gene #34 of Table 8) was 6.85, the “Log2 Expression Level” value (skin; gene #35 of Table 8) was 6.85 and the “Log2 Expression Level” value (skin; gene #36 of Table 8) was 8.98. The “Log2 Expression Level” value (skin; gene #37 of Table 8) was 8.98, the “Log2 Expression Level” value (skin; gene #38 of Table 8) was 8.98 and the “Log2 Expression Level” value (skin; gene #39 of Table 8) was 7.28. The “Log2 Expression Level” value (skin; gene #40 of Table 8) was 7.39, the “Log2 Expression Level” value (skin; gene #41 of Table 8) was 7.54 and the “Log2 Expression Level” value (skin; gene #42 of Table 8) was 7.18. For the same molecule, the “Log2 Expression Level” value (skin; gene #43 of Table 8) was 7.18, the “Log2 Expression Level” value (skin; gene #44 of Table 8) was 7.54 and the “Log2 Expression Level” value (skin; gene #45 of Table 8) was 7.18. The “Log2 Expression Level” value (skin; gene #46 of Table 8) was 7.54, the “Log2 Expression Level” value (skin; gene #47 of Table 8) was 8.45 and the “Log2 Expression Level” value (skin; gene #48 of Table 8) was 8.45. For the same molecule, the “Log2 Expression Level” value (skin; gene #49 of Table 8) was 8.45, the “Log2 Expression Level” value (skin; gene #50 of Table 8) was 9.67 and the “Log2 Expression Level” value (skin; gene #51 of Table 8) was 7.95. For the same molecule, the “Log2 Expression Level” value (skin; gene #52 of Table 8) was 9.60, the “Log2 Expression Level” value (skin; gene #53 of Table 8) was 8.70 and the “Log2 Expression Level” value (skin; gene #54 of Table 8) was 10.81. The “Log2 Expression Level” value (skin; gene #55 of Table 8) was 6.30, the “Log2 Expression Level” value (skin; gene #56 of Table 8) was 9.40 and the “Log2 Expression Level” value (skin; gene #57 of Table 8) was 8.76. The “Log2 Expression Level” value (skin; gene #58 of Table 8) was 8.74, the “Log2 Expression Level” value (skin; gene #59 of Table 8) was 7.93 and the “Log2 Expression Level” value (skin; gene #60 of Table 8) was 7.26. For the same molecule, the “Log2 Expression Level” value (skin; gene #61 of Table 8) was 12.58, the “Log2 Expression Level” value (skin; gene #62 of Table 8) was 7.63 and the “Log2 Expression Level” value (skin; gene #63 of Table 8) was 10.52. The “Log2 Expression Level” value (skin; gene #64 of Table 8) was 11.04, the “Log2 Expression Level” value (skin; gene #65 of Table 8) was 6.97 and the “Log2 Expression Level” value (skin; gene #66 of Table 8) was 7.90. For the same molecule, the “Log2 Expression Level” value (skin; gene #67 of Table 8) was 4.52, the “Log2 Expression Level” value (skin; gene #68 of Table 8) was 8.29 and the “Log2 Expression Level” value (skin; gene #69 of Table 8) was 5.13. The “Log2 Expression Level” value (skin; gene #70 of Table 8) was 4.38, the “Log2 Expression Level” value (skin; gene #71 of Table 8) was 7.95 and the “Log2 Expression Level” value (skin; gene #72 of Table 8) was 7.61. The “Log2 Expression Level” value (skin; gene #73 of Table 8) was 6.09, the “Log2 Expression Level” value (skin; gene #74 of Table 8) was 7.13 and the “Log2 Expression Level” value (skin; gene #75 of Table 8) was 8.41. For the same molecule, the “Log2 Expression Level” value (skin; gene #76 of Table 8) was 4.13, the “Log2 Expression Level” value (skin; gene #77 of Table 8) was 9.75 and the “Log2 Expression Level” value (skin; gene #78 of Table 8) was 10.71. The “Log2 Expression Level” value (skin; gene #79 of Table 8) was 6.51, the “Log2 Expression Level” value (skin; gene #80 of Table 8) was 12.79 and the “Log2 Expression Level” value (skin; gene #81 of Table 8) was 5.69. The “Log2 Expression Level” value (skin; gene #82 of Table 8) was 4.90, the “Log2 Expression Level” value (skin; gene #83 of Table 8) was 7.87 and the “Log2 Expression Level” value (skin; gene #84 of Table 8) was 7.51. For the same molecule, the “Log2 Expression Level” value (skin; gene #85 of Table 8) was 4.61, the “Log2 Expression Level” value (skin; gene #86 of Table 8) was 6.60 and the “Log2 Expression Level” value (skin; gene #87 of Table 8) was 7.01. The “Log2 Expression Level” value (skin; gene #88 of Table 8) was 5.04, the “Log2 Expression Level” value (skin; gene #89 of Table 8) was 5.15 and the “Log2 Expression Level” value (skin; gene #90 of Table 8) was 10.08. The “Log2 Expression Level” value (skin; gene #91 of Table 8) was 6.27, the “Log2 Expression Level” value (skin; gene #92 of Table 8) was 7.41 and the “Log2 Expression Level” value (skin; gene #93 of Table 8) was 8.87. The “Log2 Expression Level” value (skin; gene #94 of Table 8) was 7.83, the “Log2 Expression Level” value (skin; gene #95 of Table 8) was 5.79 and the “Log2 Expression Level” value (skin; gene #96 of Table 8) was 6.84. The “Log2 Expression Level” value (skin; gene #97 of Table 8) was 5.27, the “Log2 Expression Level” value (skin; gene #98 of Table 8) was 5.94 and the “Log2 Expression Level” value (skin; gene #99 of Table 8) was 9.42. The “Log2 Expression Level” value (skin; gene #100 of Table 8) was 7.53.
